# Results as given in patent US6878690B2, “Compounds and methods” (PharmAxis Pty Ltd., priority 2000, dated 2005).
# Several values for one entry are separate records, joined by “and”; a condition that tells them apart may be missing. Equal values may be shown once.
# Test system: passively transferred EAE
# Test: Passively transferred EAE induced with encephalitogenic MBP-specific T cell line (Example 23)
# Assay type: in vivo, Lewis rats
# Details: for clinical scores treated, mean: group mean; for clinical scores treated, mean / clinical scores treated: scale 0 to 5; for clinical scores treated: individual rats, 45 mg/kg/rat/day mini-osmotic pump
# Method: In order to study the effect of the agents of the present invention in vivo on a disease caused by T lymphocyte migration into a specific tissue, experiments were performed in the Lewis rat model of passively transferred EAE. Here, myelin basic protein (MBP)-specific T lymphocyte cell lines were generated from the draining lymph nodes of Lewis rats that had been immunised with MBP in Freund's complete adjuvant essentially according to the method of Ben-Nun et al. (1981) as described in Example 8. Thus, in this manner, donor T lymphocytes were generated from female 10 to 12 week old Lewis rats weighing 150 to 200 g. These rats were injected intradermally in a footpad of each hind foot with an emulsion of Guinea pig myelin basic protein (MBP; prepared according to the method of Deibler et al., 1972; incorporated herein by reference) in Freund's complete adjuvant (0.05 ml). The adjuvant emulsion was prepared by emulsifying equal volumes of a mixture of light mineral oil (Sigma) and normal saline containing Guinea pig myelin basic protein (0.5 mg/ml) and Mycobacterium butyricum (4 mg/ml; Difco). Thus, the total dose per rat was 50 micrograms of MBP and 400 micrograms of M. butyricum. Approximately 11 days following injection, the rats were euthanased and the draining lymph nodes (popliteal and inguinal) removed aseptically by blunt dissection and placed into mixed lymphocyte culture medium. This medium was prepared in the normal fashion from Dulbecco's Modified Eagle's Medium (DMEM; GIBCO, Grand Island, N.Y.) supplemented with glucose, folic acid, L-asparagine, sodium bicarbonate, L-glutamine, sodium pyruvate, HEPES, 2-mercaptoethanol (5×10^−5 M), penicillin, streptomycin, neomycin, and 2% fetal calf serum. A single cell suspension was prepared from the lymph nodes in the usual manner by gently pushing the nodes through a stainless steel screen. The cells were washed twice in the culture medium and following this procedure, any red blood cells were lysed in the usual manner by treating with a solution of ammonium chloride, EDTA and sodium hydrogen carbonate (pH 7.3) and the preparation strained (Falcon 2350 cell strainer). The cells were washed again in the lymphocyte culture medium. All cell preparative steps were performed on ice. These cells were cultured asceptically for 72 hours at 37° C. in a humidified atmosphere containing 7.5% carbon dioxide at a concentration of 5 million cells per milliliter in the presence of MBP (0.06 mg/ml). The cells were collected and the lymphoblasts were isolated by centrifugation on a Ficoll (Pharmacia, Uppsala, Sweden) gradient in an identical manner to that described by Ben Nun et al. (1981). The fraction containing ≧90% lymphoblasts was cultured and propagated in Eagle's medium supplemented with 15% of a concanavalin A-stimulated lymphocyte supernatant to provide growth factors, 10% fetal calf serum, nonessential amino acids (Bio-Lab, Jerusalem, Israel); sodium pyruvate, 2-mercapto ethanol and antibiotics without added antigen. The cells were plated in 100 mm petri dishes at a concentration of 0.2 million cells/ml and replated every 3 or 4 days. Prior to transfer into Lewis recipients, the cells were restimulated in the presence of MBP (0.01 mg/ml) and irradiated syngeneic thymocytes for 4 days.
# These cells were highly encephalitogenic sine as few as 500,000 cells were capable of inducing disease when injected into naïve Lewis rats. Thus, in a typical experiment a group of 5 female Lewis rats, approximately 9 weeks old, weighing 110±15 grams were anesthetised with diethyl ether and implanted with mini-osmotic pumps (Alzet 2002, Alza Corp., Palo Alto Calif., USA) containing phosphoric acid mono-(6-propyl-3,4,5-trihydroxy-tetrahydro-pyran-2-ylmethyl) ester mono sodium salt dissolved in normal saline at a concentration that delivered the drug at a rate of 45 mg/kg/rat/day. […]
compound,measurement,setting,value
"CCCC1OC(COP(=O)(O)O)C(O)C(O)C1O (stereo not shown) [phosphoric acid mono-(6-propyl-3,4,5-trihydroxy-tetrahydro-pyran-2-ylmethyl) ester]","clinical scores treated, mean","day 4, 45 mg/kg/rat/day",0
same,clinical scores treated,day 4,0
same,"clinical scores treated, mean","day 5, 45 mg/kg/rat/day",0.6
same,clinical scores treated,"day 5, 45 mg/kg",1 (3×) and 0 (2×)
same,"clinical scores treated, mean","day 6, 45 mg/kg/rat/day",1
same,clinical scores treated,"day 6, 45 mg/kg",2 (2×) and 0 (2×) and 1
same,"clinical scores treated, mean","day 7, 45 mg/kg/rat/day",0.4
same,clinical scores treated,"day 7, 45 mg/kg",0 (3×) and 1 (2×)
same,Mean maximum clinical score,"treated group, 45 mg/kg/rat/day, control group 2.0",clinical score 1.0
same,disease index (DI),"treated group, 45 mg/kg/rat/day, control group DI 160",DI 40
